Measured values as given in paper PMC4644980, “The FDA-approved natural product dihydroergocristine reduces the production of the Alzheimer’s disease amyloid-β peptides” (Scientific Reports, 2015).
Structures can show the parent of a compound that is named as a salt. Where a SMILES comes first, the peptide text is derived from it. The star is where a group is joined. Pyrrolidide = C1CCN(*)C1

What was measured:
[1] = system: hAPP cleavage by γ-secretase; assay: cleavage of APP-CTFs in HEK293 cells overexpressing hAPP; assay type: cell-based, human; settings: 20 or 50 μM
purified γ-secretase = biological target: T1, purified γ-secretase (Homo sapiens, UniProt P49768+Q92542); assay: cell-free in vitro C100-Flag γ-secretase assay with purified enzyme; assay type: biochemical; settings: for IC50 / inhibition of γ-secretase activity (C100-Flag cleavage): purified γ-secretase; for IC50: AICD-Flag densitometry, read-out: IC50 in the in vitro γ-secretase activity assay (C100-Flag processing); for The potency of compound (in vitro C100 γ-secretase assay): 200 µM, compared with DHEC, estimated by densitometry; for inhibition of γ-secretase activity (C100-Flag cleavage): 200 μM
T1 construct: made in house
Description: The density of the AICD-Flag and Aβ total bands was quantified by Odyssey software (Supplementary data Fig. S5). […] The residue was then separated by Bicine/urea SDS-PAGE, together with an Aβ standard of synthetic human Aβ38, Aβ40 and Aβ42, followed by Western blot detection with anti-Aβ antibody (6E10, left panel), or quantification by ELISA (right panel). Black bars, Aβ [1–40]; gray bars, Aβ[1–42]. Data were presented as the means ± sd. […] The change in response units over time is shown. […]
γ-Secretase was purified from S-20 cells as described previously. The recombinant APP-based protein substrate of γ-secretase, namely human C100-Flag, was overexpressed in E. coli and purified by using an anti-Flag M2 resin[31]. Full length human NCT was purified as described previously (for details, see Supplementary information)[32].
Cell-free in vitro γ-secretase assays using the recombinant C100-Flag substrate and purified γ-secretase were performed as described in the Supplementary information.
Aβ1-x peptides secreted in the cell media were quantitatively measured by ELISA (IBL, Gunma, Japan) according to the standard protocol from the manufacturer. Aβ40 and Aβ42 generated in the C100-Flag γ-secretase assays stopped with 0.5% SDS (final concentration) were quantified with the human Beta Amyloid or [1–42] colorimetric ELISA kit, respectively. […]
γ-Secretase activity assays
γ-Secretase purified from S-20 cells was solubilized in 0.2% (w/v) CHAPSO in 50 mM HEPES buffer (pH 7.0) containing of 150 mM NaCl, 5 mM MgCl2 and 5 mM CaCl2, and incubated with 0.1% (w/v) PC and 1 μM or otherwise indicated […]
concentrations of substrate at 37 °C for 4 h, after which the enzymatic reactions were stopped by adding 0.5% SDS (final concentration). The samples were analyzed by Western Blot for AICD-Flag or Aβ. […]

Row | Structure (SMILES) | cleavage of APP-CTFs / accumulation of APP-CTFs [1] | IC50 (purified γ-secretase) [µM] | The potency of compound (in vitro C100 γ-secretase assay) (purified γ-secretase) | inhibition of γ-secretase activity (C100-Flag cleavage) (purified γ-secretase)
1 | CC(C)C[C@H]1C(=O)N2CCC[C@H]2[C@]2(O)O[C@](NC(=O)OCc3ccccc3)(C(C)C)C(=O)N12 [CABA, [2R-(2α, 5α, 10aβ, 10bα)]-[Octahydro-10b-hydroxy-2-(1-methylethyl)-5-(2-methylpropyl)-3,6-dioxo-8H-oxazolo[3,2-a]pyrrolo[2,1-c]pyrazin-2-yl]-carbamic acid] | accumulation of APP-CTFs only when administered at a concentration of 50 μM | ~100 |  | 
2 | CCCN1C[C@H](CSC)C[C@@H]2c3cccc4[nH]cc(c34)C[C@H]21 [Pergolide, pergolide mesylate salt] |  |  | - | did not inhibit
3 | CC(C)C[C@H]1C(=O)N2CCC[C@H]2[C@]2(O)O[C@](NC(=O)[C@@H]3C=C4c5cccc6[nH]c(Br)c(c56)C[C@H]4N(C)C3)(C(C)C)C(=O)N12 [2-Bromo-α-ergocryptine, 2-bromo-α-ergocryptine methanesulfonate salt] | inactive | ~50 | +++ | retained the ability to inhibit
4 | CC(C)C[C@H]1C(=O)N2CCC[C@H]2[C@]2(O)O[C@](NC(=O)[C@@H]3C=C4c5cccc6[nH]cc(c56)C[C@H]4N(C)C3)(C(C)C)C(=O)N12 [α-Ergocryptine, α-ergocryptine] |  |  | +++ | inhibited
5 | CCC(C)[C@H]1C(=O)N2CCC[C@H]2[C@]2(O)O[C@](NC(=O)[C@@H]3C[C@@H]4c5cccc6[nH]cc(c56)C[C@H]4N(C)C3)(C(C)C)C(=O)N12 (stereo partly drawn) [β-Dihydro-ergocryptine, β-Dihydroergocryptine] |  |  | + | inhibited
6 | CN1C[C@H](C(=O)N[C@]2(C)O[C@@]3(O)[C@@H]4CCCN4C(=O)[C@H](Cc4ccccc4)N3C2=O)C[C@@H]2c3cccc4[nH]cc(c34)C[C@H]21 [Dihydro-ergotamine (DHE), dihydroergotamine methanesulfonate salt] |  |  | - | did not inhibit
7 | CN1C[C@H](C(=O)N[C@]2(C)O[C@@]3(O)[C@@H]4CCCN4C(=O)[C@H](Cc4ccccc4)N3C2=O)C=C2c3cccc4[nH]cc(c34)C[C@H]21 [Ergotamine, ergotamine tartrate] |  |  | - | did not inhibit
8 | CN1C[C@H](CNC(=O)OCc2ccccc2)C[C@@H]2c3cccc4c3c(cn4C)C[C@H]21 [Metergoline, metergoline] |  |  | - | did not inhibit
9 | CC[C@@H](CO)NC(=O)[C@@H]1C=C2c3cccc4[nH]cc(c34)C[C@H]2N(C)C1 [Methyl-ergometrine, methylergometrine] |  |  | - | did not inhibit
10 | CC(=O)N[C@H](C(=O)N[C@@H](Cc1ccccc1)C(=O)N1CCCC1)C(C)C [AMBE] (Ac-Val-Phe-Pyrrolidide) |  |  | - | did not show any inhibitory activity
